Results published in US10865222B2, “Neisseria gonorrhoeae therapeutic based on CMP-nonulosonate sugars” (priority 2014, dated 2020).
Entries after “also recorded” stand apart in the source; their conditions may differ.

Key:
N. gonorrhoeae F62 ΔIgtD = assay: Whole cell ELISA for Ab binding and complement component deposition; format: cell-based; details: for complement deposition (C3, C4 and fB) and Ig binding: 3.3% and 10% NHS; for Neu5Ac-mediated decrease in IgG binding and complement deposition (C4, C3, factor Bb): analogue 20, 2 or 0.2 μg/ml 15 min after CMP-Neu5Ac 20 μg/ml, 10% and 3.3% NHS
Procedure: FIG. 4. Complement C3 and C4 deposition on, and factor B binding to N. gonorrhoeae bearing nonulosonic acid analogues on LOS. N. gonorrhoeae F62 ΔIgtD was grown in media alone (open bars), or media supplemented with 20 μg/ml (˜30 μM) of each of the indicated CMP-nonulosonates. Bacteria were incubated with either 3.3% or 10% NHS at 37° C. for 10 min and IgG and IgM binding, and C3, C4 and factor B deposited on bacteria were measured by whole cell ELISA. Data with 3.3% and 10% NHS is shown by hatched and solid bars, respectively. Measurement of gonococcal H.8 lipoprotein antigen was performed to ensure similar bacterial capture to microtiter wells. The mean (SD) of triplicate observations is shown.
FIG. 6. CMP-Neu5Ac9Az and CMP-Leg5Ac7Ac interfere with inhibition of the classical and alternative pathways of complement mediated by CMP-Neu5Ac. N. gonorrhoeae F62 ΔIgtD was incubated with 20 μg/ml (˜30 μM) CMP-Neu5Ac, followed in 15 min by the addition of CMP-Neu5Ac9Az or CMP-Leg5Ac7Ac (at concentrations of 20, 2 or 0.2 μg/ml final) and bacteria were incubated for 2 h as described in FIG. 5. Bacteria were incubated in 10% NHS and Ab binding and complement deposition studies were carried out by ELISA as described in FIG. 4. The mean (SD) of two independent experiments is shown.
Binding of IgG and IgM to, and deposition of complement components C3, C4 and factor B on N. gonorrhoeae F62 ΔIgtD grown in the presence of the following CMP-nonulosonates was examined based on results of bactericidal assays and fH binding. […] N. gonorrhoeae F62 ΔIgtD with an unmodified (unsialylated) LNT LOS was used as the control serum sensitive strain. Experiments were carried out using serum concentrations of 10% and 3.3%, which represented the serum concentrations that produced discriminating phenotypes with Neu5Ac9Ac and Neu5Gc8Me.
To define the mechanism whereby Neu5Ac9Az and Leg5Ac7Ac blocked complement resistance by Neu5Ac, we studied Ab binding to, and complement component deposition on N. gonorrhoeae F62 ΔIgtD that was incubated with CMP-Neu5Ac (20 μg/ml), followed 15 min later with either CMP-Neu5Ac9Az or CMP-Leg5Ac7Ac at concentrations of 20, 2 or 0.2 μg/ml. Controls included bacteria grown in the absence of any CMP-nonulosonate, or bacteria grown in CMP-Neu5Ac alone.
C3 and C4 fragment deposition on, and factor B binding to bacteria were measured by whole cell ELISA as described previously (14, 15). Briefly, 2×10^8 organisms in HBSS^++ were incubated with NHS (at concentrations of 3.3% or 10%) in a reaction volume of 100 μl for 10 min at 37° C. This time point was chosen based on the kinetics of complement deposition on gonococci in previously published data (15). Reactions were stopped after 10 min by washing three times with ice-cold HBSS containing 5 mM phenylmethylsulfonyl fluoride at 4° C. Organisms were resuspended in 200 μl of the same buffer, and 50 μl of each sample applied per well of a 96-well U-bottomed polystyrene microtiter plate (Dynatech Laboratories, Inc., Chantilly, Va.) and incubated for 3 h at 37° C. Plates were washed with PBS containing 0.05% Tween 20. Primary antibodies (polyclonal goat anti-human C3, C4 and factor B) were diluted in PBS, and secondary antibodies diluted in PBS-0.05% Tween 20 prior to use. To ensure similar capture of bacteria incubated under different conditions, the amount of gonococcal H.8 antigen (16) expression using MAb 2-8C-4-1 (13), followed by anti-mouse IgG-alkaline phosphatase conjugate, was measured.

[1] = biological target: T1, Lst sialyltransferase from N. gonorrhoeae F62 (Neisseria gonorrhoeae, UniProt P72074); assay: Lst sialyltransferase acceptor specificity with CMP-Neu5Ac and CMP-Leg5Ac7Ac donors (TLC); format: biochemical; details: for removal of the nonulosonate from modified LacNAc acceptors by Lst over time: 2 h versus 20 h
T1 construct: made in house; host or cells: Escherichia coli
T1 sequence (P72074 whole entry): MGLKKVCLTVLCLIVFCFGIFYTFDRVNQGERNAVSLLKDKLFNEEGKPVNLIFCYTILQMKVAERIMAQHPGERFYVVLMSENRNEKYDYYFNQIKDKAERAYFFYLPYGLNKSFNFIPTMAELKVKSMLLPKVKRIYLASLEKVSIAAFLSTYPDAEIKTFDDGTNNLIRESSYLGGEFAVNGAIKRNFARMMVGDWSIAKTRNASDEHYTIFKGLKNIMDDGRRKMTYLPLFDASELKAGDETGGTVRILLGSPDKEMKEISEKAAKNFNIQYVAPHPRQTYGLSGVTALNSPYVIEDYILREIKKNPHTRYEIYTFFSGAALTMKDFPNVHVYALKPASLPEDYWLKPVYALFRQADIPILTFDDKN
Procedure: (§1) FIG. 11. N. gonorrhoeae Lst sialyltransferase efficiently legylates a LacNAc acceptor. The acceptor specificity of N. gonorrhoeae Lst sialyltransferase was assessed using CMP-Neu5Ac and CMP-Leg5Ac7Ac donors. The various acceptors tested were LacNAc or Galβ-1,4-GlcNAc-β-FCHASE, Lacto-N-biose or Galβ-1,3-GlcNAc-β-FCHASE, TAg or Galβ-1,3-GalNAc-α-FCHASE, and Pk or Galα-1,4-Galβ-1,4-Glc-β-FCHASE. Lst enzyme preparations (2.5 μg per assay) were incubated with 2.5 pmoles of each acceptor with either 3 mM CMP-Neu5Ac or 3 mM CMP-Leg5Ac7Ac for either 2 or 20 h as indicated. Reactions were then examined by TLC. Arrows indicate the general vicinity of FCHASE acceptors (top spots), whereas arrowheads indicate the general vicinity of modified FCHASE acceptors (bottom spots—enzyme product).
as §1, with “The” for “FIG. 11. N. gonorrhoeae Lst sialyltransferase efficiently legylates a LacNAc acceptor. The”, “product) (FIG. 11).” for “product).”
Lst sialyltransferase from N. gonorrhoeae F62 was recombinantly produced in Escherichia coli. Total membranes were isolated by ultracentrifugation at 100,000×g, resuspended in 0.2% Triton X-100, 50 mM Tris pH 7.5, 100 mM NaCl and incubated for 2 h at 4° C. […] N. gonorrhoeae Lst enzymatic assays were performed using 2.5 pmoles of 4 different FCHASE acceptors; LacNAc or Galβ-1,4-GlcNAc-β-FCHASE, Lacto-N-biose or Galβ-1,3-GlcNAc-β-FCHASE, TAg or Galβ-1,3-GalNAc-α-FCHASE, Pk or Galα-1,4-Galβ-1,4-Glc-β-FCHASE. CMP-Neu5Ac donor assays contained 50 mM Tris pH 7.5, whereas CMP-Leg5Ac7Ac donor assays contained 50 mM MES pH 6. All reactions contained 10 mM MnCl2, 3 mM CMP-sugar donor and 2.5 μg Lst enzyme. Reactions were incubated at 30° C. for either 2 h or 20 h as indicated. Upon completion of the reactions, stop solution was added (final concentration of 0.5% SDS, 5 mM EDTA, 25% acetonitrile) and an aliquot was run on TLC using EtOAc:MeOH:H2O:HOAc 4:2:1:0.1 as the mobile phase.

[2] = 10% serum, compared with unsialylated F62 ΔIgtD
[3] = CMP-nonulosonate 20 μg/ml, NHS 3.3% or 10%

5,7-diacetamido-3,5,7,9-tetradeoxy-D-glycero-D-galacto-nonulosonic acid [CMP-Leg5Ac7Ac]
complement deposition (C3, C4 and fB) and Ig binding (N. gonorrhoeae F62 ΔIgtD; CMP-nonulosonate 20 μg/ml): highest levels of complement deposition and Ig binding | Neu5Ac-mediated decrease in IgG binding and complement deposition (C4, C3, factor Bb) (N. gonorrhoeae F62 ΔIgtD): least amount of complement inhibition; also recorded: blocked this decrease | product conversion of LacNAc acceptor ([1]; 3 mM CMP-sugar donor, 2.5 μg Lst): ~100% | removal of the nonulosonate from modified LacNAc acceptors by Lst over time [1]: this was not observed

CC(=O)N[C@H]1[C@H]([C@H](O)[C@H](O)COC(C)=O)OC(OP(=O)(O)OC[C@H]2O[C@@H](n3ccc(N)nc3=O)[C@H](O)[C@@H]2O)(C(=O)O)C[C@@H]1O (stereo partly drawn) [CMP-Neu5Ac9Ac, CMP-5-acetamido-9-O-acetyl-3,5-dideoxy-D-glycero-D-galacto-nonulosonic acid]
C3, C4 and factor B deposition (N. gonorrhoeae F62 ΔIgtD; 3.3% serum): low levels | C3, C4 and factor B deposition (N. gonorrhoeae F62 ΔIgtD; [2]): only a modest decline | IgG binding (N. gonorrhoeae F62 ΔIgtD; [3]): reduced IgG binding

CC(=O)N[C@H]1[C@H]([C@H](O)[C@H](O)CN=[N+]=[N-])OC(OP(=O)(O)OC[C@H]2O[C@@H](n3ccc(N)nc3=O)[C@H](O)[C@@H]2O)(C(=O)O)C[C@@H]1O (stereo partly drawn) [CMP-Neu5Ac9Az, CMP-5-acetamido-9-azido-3,5,9-trideoxy-D-glycero-D-galacto-nonulosonic acid]
complement deposition (C3, C4 and fB) and Ig binding (N. gonorrhoeae F62 ΔIgtD; CMP-nonulosonate 20 μg/ml): highest levels of complement deposition and Ig binding | Neu5Ac-mediated decrease in IgG binding and complement deposition (C4, C3, factor Bb) (N. gonorrhoeae F62 ΔIgtD): blocked this decrease

CC(=O)NC1C(O)CC(OP(=O)(O)OCC2OC(n3ccc(N)nc3=O)C(O)C2O)(C(=O)O)OC1C(O)C(O)CO [CMP-Neu5Ac, CMP-5-acetamido-3,5-dideoxy-D-glycero-D-galacto-nonulosonic acid, reference compound]
complement deposition (C3, C4 and fB) and Ig binding (N. gonorrhoeae F62 ΔIgtD; CMP-nonulosonate 20 μg/ml): maximal complement inhibition | IgG binding (N. gonorrhoeae F62 ΔIgtD; [3]): decreased IgG binding substantially | IgM binding (N. gonorrhoeae F62 ΔIgtD; [3]): small but reproducible decrease | utilization of Lacto-N-biose, TAg and Pk acceptors ([1]; 3 mM CMP-sugar donor, 2 or 20 h): all but TAg could be efficiently utilized | removal of the nonulosonate from modified LacNAc acceptors by Lst over time [1]: can remove Neu5Ac from modified LacNAc acceptors over time

COC(CO)C(O)C1OC(OP(=O)(O)OCC2OC(n3ccc(N)nc3=O)C(O)C2O)(C(=O)O)CC(O)C1NC(=O)CO [CMP-Neu5Gc8Me, CMP-5-hydroxyacetamido-8-O-methyl-3,5-dideoxy-D-glycero-D-galacto-nonulosonic acid]
C3, C4 and factor B deposition (N. gonorrhoeae F62 ΔIgtD; 3.3% serum): low levels | C3, C4 and factor B deposition (N. gonorrhoeae F62 ΔIgtD; [2]): only a modest decline | IgG binding (N. gonorrhoeae F62 ΔIgtD; [3]): reduced IgG binding
